A short description of data set [1]: Pharmacokinetic study of single subcutaneous or intravenous injection of FS-01 in rhesus monkey. The settings on record: 1.2 mg/kg. It counts as in vivo. As for the experimental part: Detailed experiment method as follows: three rhesus monkeys, crossover design, with a washout period of more than two weeks. Rhesus monkey was administrated 1.2 mg/kg of FS-01 by subcutaneously or intravenously injection, 1 ml of blood sample were collected at different point of time (0, 1, 5, 15, 30 min, 1, 2, 4, 6, 8, 12, 24 and 48 h). Drug concentration at different time point in blood sample was quantitatively analyzed by LC\MS\MS, utilizing iodine labeled FS-01 as internal standard, C18 column, aqueous solution containing 0.1% TFA and acetonitrile as mobile phase. Pharmacokinetics analysis was carried out according to fitting model based on the concentration of FS-01, determined the half-life (T1/2) in plasma, bioavailability and other pharmacokinetics parameters (FIG. 1).

For data set [2], the system named is HIV. The data set is described as follows: Multidose subcutaneous injection once daily for 14 days in HIV positive patients (Example 4). It counts as in vivo, human. The settings on record: 1-30 mg once daily. As for the experimental part:
Twenty-one subjects were divided into 5 groups, received pharmaceutical composition containing 1 mg, 5 mg, 10 mg, 20 mg, 30 mg FS-01 once daily, for 14 days. Determined the viral load before injection and after injection.

The test system of data set [3] is HIV. The data set can be described thus: Multidose subcutaneous injection once daily for 28 days in HIV positive patients (Example 5). It counts as in vivo, human. To be noted: 10 mg and 20 mg once daily. The method, then:
(§1) Nineteen HIV patients were divided into two groups, were subcutaneously injected with pharmaceutical composition containing 10 mg and 20 mg of FS-01 once daily, for 28 days. The data was analyzed together with that in Example 4.

Data set [4] can be described thus: Half-life of FS-01 in HIV patient. To be noted: human, in vivo, subcutaneous, 20 mg. The method, then:
as §1
It has been shown in the result that the pharmaceutical composition of the present invention has good safety profile. […] Plasma viral load in HIV infected patient with baseline less than <10,000 c/ml decreased by 1.2 log in 20 mg group 14 days after administration (see FIG. 3). And it is recommended for infected patient with baseline viral load more than 10,000 c/ml to receive combination treatment with other antiviral agents, such as antiretroviral inhibitors or protease inhibitors.

Data set [5] can be described thus: Pharmacokinetic study of single subcutaneous injection of pharmaceutical composition containing FS-01 in healthy volunteers. The format is in vivo, human. The method, then: 3-period crossover Latin square design was employed, 12 subjects were randomly divided into three groups, four subjects per group, and were sequentially abdomenal and subcutaneously injected by pharmaceutical composition containing 10, 20, 30 mg of FS-01, doses are listed in Table 2. Blood samples were collected at 30-5 min pre-dose, 5, 15, 30 min, 1, 2, 4, 6, 8, 12, 24, 48 and 72 h after injection. The concentration of FS-01 in blood sample was quantitatively analyzed by LC\MS\MS.

In data set [6] the test system is HIV. The settings on record: HIV fusion assay; cited from earlier work.
Where [7] appears, read: plasma, 24 h, read-out: C24 (plasma concentration at 24 h).
Setting [8] is: healthy volunteers, 10, 20, 30 mg.

Values joined by “and” are separate entries in the source; they are usually repeats but may differ in a detail not shown here. Equal entries are not always repeated. “Also recorded” adds a separate entry of the source. Where two headings read alike, the source gives them in different places. Ends that are not written are not given here.

What is called Cmax is the highest concentration seen after dosing. Usually half-life stands for the time in which the quantity being followed falls by half. In general, bioavailability refers to dose-corrected exposure relative to a reference, in per cent. As to “Ac-SWETWEREIENYTRQIYRILEESQEQQDRNERDLLE-NH2 [FS-01]”, the Tmax in data set [1] was 0.25 h-2 h; in data set [1] (plasma, read-out: Tmax), 0.25 to 2 h. The Cmax is 508 ng/mL and 108 nM in data set [1] (plasma); 104 ng/mL and 22 nM in data set [5] (human, plasma, sc, 10 mg, healthy volunteers, 10 mg (low dose), single subcutaneous injection); 213 ng/mL and 45.1 nM in data set [5] (human, plasma, sc, 20 mg, healthy volunteers, 20 mg (middle dose), single subcutaneous injection); 250 ng/mL and 52.9 nM in data set [5] (human, plasma, sc, 30 mg, healthy volunteers, 30 mg (high dose), single subcutaneous injection). In data set [1] (setting [7]), the level at 24 h is greater than 9.8 ng/mL. The level at time molar at 24 h in data set [1] (setting [7]) is greater than 2.07 nM. Moreover, the half-life is 488 ± 186 min in data set [1] (plasma, subcutaneous or intravenous injection); 2340 min in data set [4]; 1200 ± 1120 min in data set [5] (human, plasma, sc, healthy volunteers, single subcutaneous injection). Further, the bioavailability in data set [1] (plasma, subcutaneous or intravenous injection, read-out: bioavailability (BA)) stood at 50%. In addition, the side effects result in data set [2] is “No signs of substantial side effects”. Besides, the “side effects / safety profile” value in data set [3] is recorded as “No signs of substantial side effects”. The “clearance rate as dose increases” value in data set [5] (setting [8]) is “did not slow down; also recorded: did not decrease”. For the same substance, the “pharmacokinetic process (linearity)” value in data set [5] (setting [8]) was “linear pattern; also recorded: linear relation”. In data set [5] (healthy volunteers, 72 hours after dosing), the “plasma drug concentration after 72 hours” value is “approaching baseline; also recorded: approached to baseline”.
In the case of “X-SWETWEREIENYTKQIYKILEESQEQQDRNEKDLLE-Z (not fully specified (N-terminus, C-terminus); printed as X-SWETWEREIENYTKQIYKILEESQEQQDRNEKDLLE-Z)”, the “EC50 relative to T-20” value in data set [6] is recorded as 20 times lower than T-20.

Values taken from patent US8603965B2, “Pharmaceutical composition for the prophylaxis and treatment of HIV infection and its use” (priority 2006, dated 2013).
